Measured values as given in patent publication US20240075050A1, “Methods and Compositions for Treating Leucine Rich Repeat Kinase 2 (LRRK2)-Associated Disorder or Condition” (University of Connecticut, priority 2022, published 2024).

What was measured:
DCP1A = DCP1A expression levels in SH-SY5Y cells, Western blot; format: cell-based, human; conditions: 1 mM, 48 hours
Procedure: FIGS. 6A-6E depict that the decapping enzyme complex DCP1/2 is involved in LRRK2 mRNA decay. FIGS. 6A and 6B depict the DCP1A and DCP2 expression levels upon AICAr treatment. SH-SY5Y cells were treated with or without 1 mM AICAr for 48 hours. DCP1A and DCP2 expression levels were analyzed by Western blot. Images were quantified by ImageJ software. Data are mean±SEM, n=3 independent experiments. **p<0.01 by Student's t tests. FIGS. 6C and 6D depict the LRRK2 expression levels upon DCP1A or DCP2 overexpression. SH-SY5Y cells were transduced with lentiviruses carrying Flag-DCP1A or Flag-DCP2 for 48 hours. LRRK2 expression levels were analyzed by Western blot. Images were quantified by ImageJ software. Data are mean±SEM, n=3 independent experiments. *p<0.05 by Student's t tests. FIG. 6E depict LRRK2 mRNA decapping by DCP1A and DCP2. Recombinant DCP1A and DCP2 proteins were purified from HEK 293T cells and incubated with [α-32P]cap-labeled LRRK2 RNA. LRRK2 mRNA decapping was analyzed by one-dimensional thin layer chromatography.

LRRK2 [1] = assay: LRRK2 levels in human fibroblasts, Western blot; format: cell-based; conditions: 1 mM, 48 hours
Procedure: FIGS. 2A-2T depicts that AICAr, the precursor of ATIC substrate, regulates LRRK2 expression levels and neuronal toxicity. FIGS. 2A and 2B depict the overexpressed LRRK2 levels in HEK 293T cells upon AICAr treatment. HEK293 cells were transfected with MYC-LRRK2 and treated with or without 1 mM AICAr for 48 hours. LRRK2 levels were analyzed by Western blot. FIGS. 2C and 2D depict the LRRK2 expression levels in SH-SY5Y cells upon AICAr treatment. Human neuroblastoma SH-SY5Y cells were treated with or without 1 mM AICAr for 48 hours. LRRK2 expression levels were analyzed by Western blot. FIGS. 2E and 2F depict the overexpressed (3-glucocerebrosidase (GCase) levels upon AICAr treatment. HEK 293T cells were transfected with V5-GCase and treated with or without 1 mM AICAr for 48 hours. GCase levels were analyzed by Western blot. FIGS. 2G-2N depict the LRRK2 expression levels in primary neurons (FIG. 2G and FIG. 2H), microglia (FIG. 2I and FIG. 2J), astrocytes (FIG. 2K and FIG. 2L) and human fibroblasts (FIG. 2M and FIG. 2N) upon AICAr treatment. Mouse primary cortical neurons, microglia, astrocytes or human fibroblasts from a health control were treated with or without 1 mM AICAr for 48 hours. LRRK2 expression levels were analyzed by Western blot. […] LRRK2 expression levels were analyzed by Western blot. […] Images were quantified by ImageJ software. […]

LRRK2 [2] = assay: Endogenous LRRK2 levels in SH-SY5Y cells, Western blot; format: cell-based, human

NC(=O)c1ncn([C@@H]2O[C@H](CO)[C@@H](O)[C@H]2O)c1N [AICAr, 5-aminoimidazole-4-carboxamide riboside]
endogenous levels of DCP1A (DCP1A): significantly increased | LRRK2 levels in fibroblasts (LRRK2 [1]): significantly decrease | LRRK2 level, time and dose course (LRRK2 [2]; 1 mM, 24h-48h treatment): suppressed LRRK2 level dramatically | LRRK2 protein levels in AUF1-KO cells (LRRK2 [2]; SH-SY5Y AUF1-KO cells, 1 mM, 48 hours): largely attenuated effects | AICAr effects on LRRK2 in AUF1 KO cells with stable AUF1-GFP expression (LRRK2 [2]; SH-SY5Y AUF1 KO, AUF1-GFP expressed back, 1 mM, 48 hours): significantly rescued AICAr effects | effects on LRRK2 protein levels in WT versus AMPK KO cell line (LRRK2 [2]; SH-SY5Y WT and AMPK KO, 1 mM, 48 hours): similar | endogenous LRRK2 levels (LRRK2 [2]; SH-SY5Y cells, 1 mM, 48 hours): decreased | LRRK2 protein levels despite MG132 or CQ (LRRK2 [2]; SH-SY5Y, 1 mM AICAr with 0.35 μM MG132 or 5 μM CQ, 48 hours): still largely reduced
